Test results published in US20150105252A1, “SUBSTITUTED PYRAZOLES AS HERBICIDES” (E I DU PONT DE NEMOURS AND COMPANY, priority 2013, published 2015).

Assays:
[1] = system: ryegrass, Italian; test: Test C preemergence; type: in vivo, Lolium multiflorum; conditions: preemergence; for Plant response rating, Ryegrass, Italian: 125 g ai/ha, scale 0 to 100, 0 = no effect, 100 = complete control
Procedure, shortened: (§1)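 Postemergence values come from plants sprayed at the 1- to 4-leaf stage (2–18 cm) in peat moss–vermiculite medium; preemergence values from seeds treated in a loam–sand blend. Both evaluated visually against controls after 13–15 greenhouse days, scale 0–100.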

[2] = system: foxtail, giant; test: Test C preemergence; type: in vivo, Setaria faberii; conditions: preemergence; for Plant response rating, Foxtail, Giant: 125 g ai/ha, scale 0 to 100, 0 = no effect, 100 = complete control
Procedure, shortened: as §1

[3] = system: corn; test: Test A postemergence; type: in vivo, Zea mays
Procedure, shortened: (§2)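 Visual injury ratings, 0 = no effect to 100 = complete control, taken about 10 days after treatment against untreated controls. Test chemicals, in a non-phytotoxic surfactant-containing solvent, were sprayed onto soil preemergence or onto one- to two-leaf plants (2–10 cm) postemergence, in loam–sand soil under greenhouse conditions.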

[4] = system: barnyardgrass; test: Test B flood; type: in vivo, Echinochloa crus-galli; conditions: 250 g ai/ha, visual rating on 0 to 100 scale (0 no effect, 100 complete control), 13 to 15 days
Procedure, shortened: (§3)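 Flooded-pot test: compound dosed into 3 cm of standing water above soil when plants had two leaves. Visual control ratings (0–100) versus untreated plants after 13–15 d.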

[5] = system: corn; test: Test C preemergence; type: in vivo, Zea mays; conditions: preemergence; for Plant response rating, Corn: 125 g ai/ha, scale 0 to 100, 0 = no effect, 100 = complete control
Procedure, shortened: as §1

[6] = system: sedge, umbrella; test: Test B flood; type: in vivo, Cyperus difformis; conditions: 250 g ai/ha, visual rating on 0 to 100 scale (0 no effect, 100 complete control), 13 to 15 days
Procedure, shortened: as §3

[7] = system: barnyardgrass; test: Test A preemergence; type: in vivo, Echinochloa crus-galli; conditions: preemergence; for Barnyardgrass plant response rating (0 to 100 scale, 0 is no effect, 100 is complete control): 125 g ai/ha, visual injury approx. 10 days after treatment; for Barnyardgrass plant response rating: 500 g ai/ha, visual injury after approx. 10 days, 0 to 100 scale (0 no effect, 100 complete control)
Procedure, shortened: as §2

[8] = system: velvetleaf; test: Test A postemergence; type: in vivo, Abutilon theophrasti; conditions: Postemergence
Procedure, shortened: as §2

[9] = system: wheat; test: Test A postemergence; type: in vivo, Triticum aestivum; conditions: Postemergence
Procedure, shortened: as §2

[10] = system: morningglory; test: Test C preemergence; type: in vivo, Ipomoea coccinea; conditions: preemergence; for Plant response rating, Morningglory: 125 g ai/ha, scale 0 to 100, 0 = no effect, 100 = complete control
Procedure, shortened: as §1

[11] = system: pigweed; test: Test C preemergence; type: in vivo, Amaranthus retroflexus; conditions: preemergence; for Plant response rating, Pigweed: 125 g ai/ha, scale 0 to 100, 0 = no effect, 100 = complete control
Procedure, shortened: as §1

[12] = system: wheat; test: Test A preemergence; type: in vivo, Triticum aestivum; conditions: preemergence; for Wheat plant response rating (0 to 100 scale): 125 g ai/ha, visual injury approx. 10 days after treatment; for Wheat plant response rating: 500 g ai/ha, visual injury after approx. 10 days, 0 to 100 scale (0 no effect, 100 complete control)
Procedure, shortened: as §2

[13] = system: ragweed; test: Test C preemergence; type: in vivo, Ambrosia elation; conditions: preemergence; for Plant response rating, Ragweed: 125 g ai/ha, scale 0 to 100, 0 = no effect, 100 = complete control
Procedure, shortened: as §1

[14] = system: velvetleaf; test: Test C preemergence; type: in vivo, Abutilon theophrasti; conditions: preemergence; for Plant response rating, Velvetleaf: 125 g ai/ha, scale 0 to 100, 0 = no effect, 100 = complete control
Procedure, shortened: as §1

[15] = 31 g ai/ha, visual rating, scale 0 to 100 (0 no effect, 100 complete control), 13 to 15 days
[16] = 62 g ai/ha, scale 0 to 100 (0 no effect, 100 complete control), 13 to 15 days
[17] = 250 g ai/ha, scale 0 to 100, 0 is no effect, 100 is complete control
[18] = Postemergence, 500 g ai/ha, 0 to 100 scale (0 no effect, 100 complete control)
[19] = postemergence, 125 g ai/ha, about 10 days, visual rating on 0 to 100 scale (0 no effect, 100 complete control)
[20] = 125 g ai/ha, 0 to 100 scale, 0 no effect, 100 complete control
[21] = 500 g ai/ha, 0 to 100 scale (0 no effect, 100 complete control)

Row | Compound | Ryegrass, Italian plant response rating [1, 15] | Ryegrass, Italian plant response rating [1, 16] | Plant response rating, Ryegrass, Italian ([1]; 13 to 15 days) | Ryegrass, Italian plant response rating [1, 17] | Foxtail, Giant plant response rating [2, 15] | Foxtail, Giant plant response rating [2, 16] | Plant response rating, Foxtail, Giant ([2]; 13 to 15 days) | Foxtail, Giant plant response rating [2, 17] | Corn plant response rating [3, 18] | Corn plant response rating [3, 19] | Plant response rating, Barnyardgrass [4] | Corn plant response rating [5, 15] | Corn plant response rating [5, 16] | Plant response rating, Corn ([5]; 13 to 15 days) | Corn plant response rating [5, 17] | Plant response rating, Sedge, Umbrella [6] | Barnyardgrass plant response rating (0 to 100 scale, 0 is no effect, 100 is complete control) [7] | Barnyardgrass plant response rating [7] | Velvetleaf plant response rating [8, 20] | Velvetleaf plant response rating [8, 21] | further results
1 | Cc1cc(C(=O)NC(C)C)nn1Cc1ccnc(C(F)(F)F)c1 [Compound 197] | 15 | 35 | 85 | 90 | 65 | 98 | 100 | 100 | 90 | 30 | 10 | 5 | 5 | 45 | 95 | 85 | 90 | 100 | 30 | 80 | Wheat plant response rating [9, 20]: 0; Wheat plant response rating [9, 21]: 60; Morningglory plant response rating [10, 15]: 75; Morningglory plant response rating [10, 16]: 100; Plant response rating, Morningglory ([10]; 13 to 15 days): 100; Morningglory plant response rating [10, 17]: 100; Pigweed plant response rating [11, 15]: 100; Pigweed plant response rating [11, 16]: 100; Plant response rating, Pigweed ([11]; 13 to 15 days): 100; Pigweed plant response rating [11, 17]: 100; Wheat plant response rating (0 to 100 scale) [12]: 0; Wheat plant response rating [12]: 50; Ragweed plant response rating [13, 15]: 60; Ragweed plant response rating [13, 16]: 85; Plant response rating, Ragweed ([13]; 13 to 15 days): 95; Ragweed plant response rating [13, 17]: 98; Velvetleaf plant response rating [14, 15]: 25; Velvetleaf plant response rating [14, 16]: 90; Plant response rating, Velvetleaf ([14]; 13 to 15 days): 65; Velvetleaf plant response rating [14, 17]: 100
2 | CCCNC(=O)c1cc(CCC)n(Cc2cc(C(F)(F)F)nn2C)n1 [Compound 198] | 25 | 70 | 90 | 90 | 98 | 100 | 100 | 100 | 90 | 90 | 60 | 5 | 55 | 85 | 98 | 100 | 100 | 100 | 30 | 100 | Wheat plant response rating [9, 20]: 60; Wheat plant response rating [9, 21]: 90; Morningglory plant response rating [10, 15]: 95; Morningglory plant response rating [10, 16]: 100; Plant response rating, Morningglory ([10]; 13 to 15 days): 100; Morningglory plant response rating [10, 17]: 100; Pigweed plant response rating [11, 15]: 100; Pigweed plant response rating [11, 16]: 100; Plant response rating, Pigweed ([11]; 13 to 15 days): 100; Pigweed plant response rating [11, 17]: 100; Wheat plant response rating (0 to 100 scale) [12]: 60; Wheat plant response rating [12]: 100; Ragweed plant response rating [13, 15]: 60; Ragweed plant response rating [13, 16]: 85; Plant response rating, Ragweed ([13]; 13 to 15 days): 98; Ragweed plant response rating [13, 17]: 100; Velvetleaf plant response rating [14, 15]: 35; Velvetleaf plant response rating [14, 16]: 85; Plant response rating, Velvetleaf ([14]; 13 to 15 days): 100; Velvetleaf plant response rating [14, 17]: 100
3 | CCc1cc(C(=O)NCC2CC2)nn1Cc1ccnc(C(F)(F)F)c1 [Compound 199] | 40 | 85 | 90 | 90 | 100 | 100 | 100 | 100 | 90 | 50 | 55 | 20 | 65 | 75 | 90 | 90 | 100 | 100 | 80 | 90 | Wheat plant response rating [9, 20]: 70; Wheat plant response rating [9, 21]: 80; Morningglory plant response rating [10, 15]: 60; Morningglory plant response rating [10, 16]: 100; Plant response rating, Morningglory ([10]; 13 to 15 days): 98; Morningglory plant response rating [10, 17]: 100; Pigweed plant response rating [11, 15]: 100; Pigweed plant response rating [11, 16]: 100; Plant response rating, Pigweed ([11]; 13 to 15 days): 100; Pigweed plant response rating [11, 17]: 100; Wheat plant response rating (0 to 100 scale) [12]: 90; Wheat plant response rating [12]: 100; Ragweed plant response rating [13, 15]: 30; Ragweed plant response rating [13, 16]: 85; Plant response rating, Ragweed ([13]; 13 to 15 days): 95; Ragweed plant response rating [13, 17]: 95; Velvetleaf plant response rating [14, 15]: 40; Velvetleaf plant response rating [14, 16]: 100; Plant response rating, Velvetleaf ([14]; 13 to 15 days): 100; Velvetleaf plant response rating [14, 17]: 100
